Source: US6252079A, “Intermediates in the synthesis of camptothecin and related compounds and synthesis thereof” (University of Pittsburgh, priority 1997, dated 2001)
Like-named read-outs stand apart in the source and are kept apart here.

Columns and labels:
colon cancer xenografts = details: dose levels that were well tolerated; cited from earlier work
[1] = test system: 833 K human teratocarcinoma cells; test: Cytotoxicity, 833 K cells; assay type: cell-based; details: read-out: IC50 (833 K human teratocarcinoma cells)
Experimental: Cytotoxicity and Topoisomerase I-mediated effect studies of compounds 22d and (20S)-camptothecin were performed at the Laboratory for Bioorganic Chemistry, Memorial Sloan-Kettering Institute Cancer Center, New York with the following results: […]

Topoisomerase I [2] = target: T1, Topoisomerase I (Homo sapiens, UniProt P11387); test: Inhibition of Topoisomerase I-mediated relaxation of supercoiled DNA; assay type: biochemical; details: 22d compared with CPT
T1 construct: supercoiled DNA relaxation and DNA cleavage assays
T1 sequence (P11387 2-765): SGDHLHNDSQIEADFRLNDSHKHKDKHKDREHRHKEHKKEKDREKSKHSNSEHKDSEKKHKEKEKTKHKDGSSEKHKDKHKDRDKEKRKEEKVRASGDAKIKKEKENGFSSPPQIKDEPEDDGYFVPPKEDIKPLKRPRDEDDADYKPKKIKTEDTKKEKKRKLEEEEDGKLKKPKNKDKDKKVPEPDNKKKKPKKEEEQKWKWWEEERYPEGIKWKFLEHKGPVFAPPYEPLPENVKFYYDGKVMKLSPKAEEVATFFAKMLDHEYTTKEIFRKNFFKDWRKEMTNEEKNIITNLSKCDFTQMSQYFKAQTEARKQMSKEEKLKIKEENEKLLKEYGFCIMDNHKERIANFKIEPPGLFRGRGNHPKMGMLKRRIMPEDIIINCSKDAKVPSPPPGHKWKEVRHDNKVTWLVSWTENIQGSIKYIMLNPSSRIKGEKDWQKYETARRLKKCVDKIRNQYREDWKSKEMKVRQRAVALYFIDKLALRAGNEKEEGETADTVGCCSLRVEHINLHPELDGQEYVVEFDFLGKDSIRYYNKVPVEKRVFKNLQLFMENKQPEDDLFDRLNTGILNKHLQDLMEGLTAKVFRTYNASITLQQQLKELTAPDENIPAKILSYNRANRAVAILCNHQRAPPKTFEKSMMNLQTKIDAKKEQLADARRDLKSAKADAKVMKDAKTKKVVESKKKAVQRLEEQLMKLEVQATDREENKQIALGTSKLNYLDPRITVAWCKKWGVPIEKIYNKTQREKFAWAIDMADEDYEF

[3] = test system: HL-60 human promyelocytic leukemic cells; test: Cytotoxicity, HL-60 cells; assay type: cell-based
Experimental: Cytotoxicity and Topoisomerase I-mediated effect studies of compounds 22d and (20S)-camptothecin were performed at the Laboratory for Bioorganic Chemistry, Memorial Sloan-Kettering Institute Cancer Center, New York with the following results:
1. IC50 (HL-60 human promyelocytic leukemic cells, μmol): 0.004 (22d); 0.004 (CPT).

Topoisomerase I [4] = target: T1, Topoisomerase I; test: Induction of Topoisomerase I-mediated DNA cleavage; assay type: biochemical; details: 22d compared with CPT
[5] = test system: thirteen human xenograft lines, including colon, lung, breast, stomach, ovary, and malignant melanoma; details: 20% interlipid formulation, intramuscularly and orally, non-toxic doses; cited from earlier work

| Structure (SMILES) | efficacy in mice carrying colon cancer xenografts (colon cancer xenografts) | IC50 ([1]; 833K) | potency in the inhibition of Topoisomerase I-mediated relaxation of supercoiled DNA (Topoisomerase I [2]) | IC50 ([3]; HL-60, read-out: IC50 (HL-60 human promyelocytic leukemic cells)) | potency in the induction of Topoisomerase I-mediated DNA cleavage (Topoisomerase I [4]) | effect on growth of human xenograft lines [5] | IC50 ([1]; 833 K cells, cytotoxicity) | IC50 ([3]; HL-60 cells, cytotoxicity, read-out: IC50 (HL-60 human promyelocytic leukemic cells)) |
| --- | --- | --- | --- | --- | --- | --- | --- | --- |
| CCC1(O)C(=O)OCc2c1cc1n(c2=O)Cc2cc3c(N)cccc3nc2-1 (racemic) [Racemic 9-aminocamptothecin, 9-aminocamptothecin] | very effective | – | – | – | – | – | – | – |
| CC[C@@]1(O)C(=O)OCc2c1cc1n(c2=O)Cc2cc3ccccc3nc2-1 [CPT, (20S)-camptothecin] | – | 5.5 nM | Same potency | 4 nM | Same potency | suppressed growth and induced regression of cancer in thirteen human xenograft lines | – | – |
| CC[C@@]1(O)C(=O)OCc2c1cc1n(c2=O)Cc2c-1nc1ccccc1c2[Si](C)(C)C [Compound 22d, (20S)-7-Trimethylsilylcamptothecin] | – | – | Same potency | – | Same potency | – | 4.4 nM | 4 nM |
